Like-named read-outs stand apart in the source and are kept apart here.
Key:
[1] = target: T. brucei N-myristoyl transferase (Trypanosoma brucei brucei (strain 927/4 GUTat10.1), UniProt Q388H8); test: biochemical; format: biochemical; details: read-out: IC50 (μM) NMT Enzyme
[2] = system: Trypanosome (T. brucei brucei); test: In-vitro antitrypanosomal efficacy assay (cell growth, resazurin); format: cell-based
Method: To column 12, 200 μl media was added to provide a no cells control. Plates were then incubated at 37° C. in an atmosphere of 5% CO2 for 69 hours, before the addition of 20 μl of 500 μM rezasurin solution, and a further incubation period of 4 hours. […] Concentration effect curves were fitted using non-linear regression using XLFit 4.2 and EC50 values determined.

[3] = value printed without enzyme tag in the NMT Enzyme column (taken as T. brucei NMT)
[4] = value with no enzyme tag in the cell, taken as T. brucei NMT
[5] = T. brucei brucei, blood stream form, variant 221

Sequence of T. brucei N-myristoyl transferase (Q388H8 1-446): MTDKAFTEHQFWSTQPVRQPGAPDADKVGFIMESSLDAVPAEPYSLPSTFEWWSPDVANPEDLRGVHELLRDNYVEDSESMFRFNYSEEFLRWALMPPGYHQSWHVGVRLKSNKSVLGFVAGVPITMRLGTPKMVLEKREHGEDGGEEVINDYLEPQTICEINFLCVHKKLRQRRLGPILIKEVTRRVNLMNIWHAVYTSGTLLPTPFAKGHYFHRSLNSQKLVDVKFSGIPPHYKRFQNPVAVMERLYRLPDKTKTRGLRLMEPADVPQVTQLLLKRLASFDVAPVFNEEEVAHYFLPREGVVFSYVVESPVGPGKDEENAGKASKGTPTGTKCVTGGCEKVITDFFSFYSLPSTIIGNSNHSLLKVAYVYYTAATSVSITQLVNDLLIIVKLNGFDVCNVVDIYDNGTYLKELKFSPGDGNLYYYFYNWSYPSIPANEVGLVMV

| Compound | ED50 (μM) T. brucei ([2]; T. brucei cell growth) | other results |
| --- | --- | --- |
| Cc1nn(C)c(C)c1N[S+](=O)([O-])c1ccc(OC(F)(F)F)cc1 [DDD71234] | >1 µM | IC50 [1, 3]: 2.7 µM |
| CC(=O)c1cccc(Nc2ccc([S+](=O)([O-])Nc3c(C)nn(C)c3C)cn2)c1 [DDD86311] | >1 µM | IC50 [1, 4]: 1 µM |
| Cc1nn(C)c(C)c1N[S+](=O)([O-])c1ccc(COCCCN2CCN(C)CC2)cc1 [DDD85648] | >1 µM | IC50 [1, 4]: 47.7 µM |
| Cc1nn(C)c(C)c1N[S+](=O)([O-])c1ccc(Br)cc1F [DDD88318] | >10 µM | IC50 [1, 4]: 10 µM |
| Cc1nn(C)c(C)c1N[S+](=O)([O-])c1ccc(C#N)cc1 [DDD71238] | >1 µM | IC50 [1, 3]: 32.6 µM |
| Cc1c(N[S+](=O)([O-])c2ccc(-c3cccc(CN(C)C)c3F)cc2)c(CC(C)C)nn1C [DDD99816] | 0.031 µM |  |
| Cc1nn(C)c(C)c1N[S+](=O)([O-])c1c(Cl)cc(Br)cc1Cl [DDD73234, 4-Bromo-2,6-dichloro-N-(1,3,5-trimethyl-1H-pyrazol-4-yl)-benzenesulfonamide] | 14.3 µM |  |
| Cc1nn(C)c(C)c1N(C)[S+](=O)([O-])c1c(Cl)cc(-c2ccnc(N3CCNCC3)c2)cc1Cl [DDD88193, 2,6-Dichloro-N-methyl-4-(2-piperazin-1-yl-pyridin-4-yl)-N-(1,3,5-trimethyl-1H-pyrazol-4-yl)-benzenesulfonamide] | 0.005 µM |  |
| Cc1nn(C)c(C)c1N(C(F)F)[S+](=O)([O-])c1c(Cl)cc(Br)cc1Cl [DDD100805, 4-bromo-2,6-dichloro-N-(difluoromethyl)-N-(1,3,5-trimethyl-1H-pyrazol-4-yl)benzenesulfonamide] |  | ED50 (μM) T. brucei [2, 5]: >1 µM |
| Cc1nn(C)c(C)c1N[S+](=O)([O-])c1ccc(-c2cccc(CCO)c2)cc1 [DDD87751, 3′-(2-Hydroxy-ethyl)-biphenyl-4-sulfonic acid (1,3,5-trimethyl-1H-pyrazol-4-yl)-amide] | >1 µM |  |
| Cc1nn(C)c(C)c1NS(=O)(=O)c1ccc(-c2ccnc(N3CC(C)NC(C)C3)c2)cc1 (stereo not drawn) [DDD87761, 4-[2-(3,5-Dimethyl-piperazin-1-yl)-pyridin-4-yl]-N-(1,3,5-trimethyl-1H-pyrazol-4-yl)-benzenesulfonamide] | 0.02 µM |  |
| Cc1nn(C)c(C)c1N[S+](=O)([O-])c1ccc(CCCCC2CCNCC2)cc1 [DDD99760] | 0.010 µM |  |
| CCN(c1c(C)nn(C)c1C)[S+](=O)([O-])c1c(Cl)cc(CCCC2CCNCC2)cc1Cl [DDD100091] |  | ED50 (μM) T. brucei [2, 5]: 0.004 µM |
| Cc1nn(C)c(C)c1N(C(F)F)[S+](=O)([O-])c1c(Cl)cc(CCCN2CCCN(C)CC2)cc1Cl [DDD100164] |  | ED50 (μM) T. brucei [2, 5]: 0.001 µM |
| Cc1nn(C)c(C)c1N[S+](=O)([O-])c1cc(F)c(Br)cc1F [DDD88004, 4-Bromo-3,6-difluoro-N-(1,3,5-trimethyl-1H-pyrazol-4-yl)-benzenesulfonamide] | >1 µM |  |
| Cc1nn(C)c(C)c1N(CC(F)(F)F)[S+](=O)([O-])c1c(Cl)cc(CCCC2CCNCC2)cc1Cl [DDD100151] |  | ED50 (μM) T. brucei [2, 5]: 0.034 µM |
| Cc1c(N[S+](=O)([O-])c2ccc(-c3ccc(OC(F)(F)F)c(CN(C)C)c3)cc2)c(CC(C)C)nn1C [DDD100140] |  | ED50 (μM) T. brucei [2, 5]: >1 µM |
| Cc1nn(C)c(C)c1N(CC(F)F)[S+](=O)([O-])c1c(Cl)cc(CCCCC2CCN(C)CC2)cc1Cl [DDD100159] |  | ED50 (μM) T. brucei [2, 5]: 0.009 µM |
| Cc1nn(C)c(C)c1N[S+](=O)([O-])c1ccc(NCCN2CCN(C)CC2)nc1 [DDD85602, 6-[2-(4-Methyl-piperazin-1-yl)-ethylamino]-pyridine-3-sulfonic acid (1,3,5-trimethyl-1 H-pyrazol-4-yl)-amide] | 0.63 µM |  |
| Cc1nn(C)c(C)c1N[S+](=O)([O-])c1ccc(-c2cccc(C3CCNCC3)c2)cc1 [DDD87768, 3′-Piperidin-4-yl-biphenyl-4-sulfonic acid (1,3,5-trimethyl-1H-pyrazol-4-yl)-amide] | 0.06 µM |  |
| Cn1cc(N[S+](=O)([O-])c2ccc(-c3ccnc(N4CCNCC4)c3)cc2)cn1 [DDD86474, N-(1-Methyl-1H-pyrazol-4-yl)-4-(2-piperazin-1-yl-pyridin-4-yl)-benzenesulfonamide] | 0.65 µM |  |
| Cc1nn(C)c(C)c1N[S+](=O)([O-])c1c(Cl)cc(CCCC2CCNCC2)cc1Cl [DDD99759] | 0.003 µM |  |
| CCN(CC)Cc1ccccc1-c1ccc([S+](=O)([O-])Nc2c(C)nn(C)c2C)cc1 [DDD87758, 2′-Diethylaminomethyl-biphenyl-4-sulfonic acid (1,3,5-trimethyl-1H-pyrazol-4-yl)-amide] | >1 µM |  |
| Cc1nn(C)c(C)c1N(C)[S+](=O)([O-])c1c(Cl)cc(-c2cccc(CN3CCN(C)CC3)c2)cc1Cl [DDD90118] | 0.015 µM |  |
| Cc1nn(C)c(C)c1N[S+](=O)([O-])c1ccc(NC2CCN(Cc3ccccc3)C2)nc1 (stereo not drawn) [DDD86294] | >1 µM |  |
| Cc1nn(C)c(C)c1N(CC(F)(F)F)[S+](=O)([O-])c1ccc(-c2ccnc(N3CCNCC3)c2)cc1 [DDD88645] | 0.021 µM |  |
| Cc1nn(C)c(C)c1N[S+](=O)([O-])c1c(Cl)cc(-c2cccc(CN3CCCC3)c2)cc1Cl [DDD88009, 3,5-Dichloro-3′-pyrrolidin-1-ylmethyl-biphenyl-4-sulfonic acid (1,3,5-trimethyl-1H-pyrazol-4-yl)-amide] | 0.10 µM |  |
| Cc1nn(C)c(C)c1NS(=O)(=O)c1ccc(C#CCCC2CCN(C)CC2)cc1 [DDD99761] | 0.240 µM |  |

From patent US9156811B2 (priority 2008, dated 2015)
